Test results from patent US20170096402A1, “5-(HETERO)ARYLPYRIDAZINONES AND THEIR USE AS HERBICIDES” (BAYER CROPSCIENCE AKTIENGESELLSCHAFT, priority 2014, published 2017).

What was measured:
[1] = system: Triticum aestivum (wheat); assay: Post-emergence method, damage to crop plants (also comparative experiments, TRZAS); format: in vivo
Procedure: Seeds of monocotyledonous and dicotyledonous weed and crop plants are laid out in sandy loam in wood-fiber pots, covered with soil and cultivated in a greenhouse under good growth conditions. 2 to 3 weeks after sowing, the test plants are treated at the one-leaf stage. The compounds of the invention, formulated in the form of wettable powders (WP) or as emulsion concentrates (EC), are then sprayed onto the green parts of the plants in the form of an aqueous suspension or emulsion at a water application rate equating to 600 to 800 I/ha, with addition of 0.2% wetting agent. After the test plants have been left to stand in the greenhouse under optimal growth conditions for about 3 weeks, the action of the preparations is assessed visually in comparison to untreated controls (herbicidal action in percent (%): 100% activity=the plants have died, 0% activity=like control plants).

wheat = assay: Pre-emergence method, damage to crop plants; format: in vivo
Excerpt: Seeds of monocotyledonous and dicotyledonous weed plants and crop plants are laid out in wood-fiber pots in sandy loam and covered with soil. The compounds of the invention, formulated in the form of wettable powders (WP) or as emulsion concentrates (EC), are then applied to the surface of the covering soil in the form of an aqueous suspension or emulsion at a water application rate equating to 600 to 800 I/ha, with addition of 0.2% wetting agent. After the treatment, the pots are placed in a greenhouse and kept under good growth conditions for the trial plants. The damage to the test plants is scored visually after a test period of 3 weeks by comparison with untreated controls (herbicidal activity in percent (%): 100% activity=the plants have died, 0% activity=like control plants).

[2] = post-emergence, 20 g per hectare, about 3 weeks
[3] = pre-emergence, 320 g per hectare, 3 weeks

For `Cc1c(-c2cnn(C)c(=O)c2O)ccc(C(F)(F)F)c1SCC1CC1` [1-553], the damage in wheat [1, 2] was “no damage” and the damage in wheat (wheat; [3]) was “no damage”.
In the case of `Cc1c(-c2cnn(C)c(=O)c2O)ccc(C(F)(F)F)c1[S+]([O-])CC1CC1` (centres unmarked) [1-554], the damage in wheat [1, 2] is reported as “no damage”.
For `Cc1c(-c2cnn(C)c(=O)c2O)ccc(C(F)(F)F)c1S(=O)(=O)CC1CC1` [1-555, 5-{3-[(cyclopropylmethyl)sulfonyl]-2-methyl-4-(trifluoromethyl)phenyl}-4-hydroxy-2-methylpyridazin-3(2H)-one], the damage in wheat ([1]; in vivo) was “no damage” and the damage in wheat (wheat; in vivo) was “no damage”.
With `COCCSc1c(C(F)(F)F)ccc(-c2cnn(C)c(=O)c2O)c1C` [1-1069] the damage in wheat [1, 2] was “no damage” and the damage in wheat (wheat; [3]) was “no damage”.
With `COCC[S+]([O-])c1c(C(F)(F)F)ccc(-c2cnn(C)c(=O)c2O)c1C` (centres unmarked) [1-1070] the damage in wheat [1, 2] was “no damage” and the damage in wheat (wheat; [3]) was “no damage”.
In the case of `COCCS(=O)(=O)c1c(C(F)(F)F)ccc(-c2cnn(C)c(=O)c2O)c1C` [1-1071], the damage in wheat [1, 2] is reported as “no damage” and the damage in wheat (wheat; [3]) is reported as “no damage”.
